Marks after values point to notes of the source that are not given here.
Columns and labels:
[1] = target: full-length recombinant NC (1–55) (Human immunodeficiency virus type 1 group M subtype B, UniProt P12493); assay: Non-denaturing ESI-MS binding and binding competition with NC; design: species or system HIV-1 LAI strain; conditions: for complex formation with NC (ESI-MS): 5 μM NC, ten-fold compound concentration
NC(11–55) peptide = NC(11–55) peptide (Human immunodeficiency virus type 1 group M subtype B, UniProt P04591, I389N); assay: Nucleic acid destabilization assay; assay type: biochemical, HIV-1 MAL strain; conditions: 200 μM of compound
MT-2 cells = assay type: cell-based; conditions: human, 72 h

Row | SMILES | complex formation with NC (ESI-MS) [1] | affinity of 5–06 for NC relative to compound 5 ([1]; from fractional occupancies) | inhibition of the NC-induced cTAR55 destabilization (NC(11–55) peptide) | TD50 (MT-2 cells)
1 | O=c1[nH]c2cc(S(=O)(=O)Nc3ccc4[nH]ncc4c3)ccc2o1 [5–06, N-(1H-indazol-5-yl)-2-oxo-2,3-dihydro-1,3-benzoxazole-5-sulfonamide] | stable 1:1 complexes | two to three-fold higher affinity | by half | 140^# (75.0–378.0) μM
2 | Cc1ccc(NS(=O)(=O)c2ccc3oc(=O)[nH]c3c2)c(C)c1 [compound 5, N-(2,4-dimethylphenyl)-2-oxo-2,3-dihydro-1,3-benzoxazole-5-sulfonamide] | stable 1:1 complexes | – | – | –
